Here are results for six compounds from patent US10067136B1, “Photoactivatable probes and uses thereof” (University of South Florida, priority 2016, dated 2018).

“Also recorded” adds a separate entry of the source.

A short description of series [1]: Ambient light stability evaluation (fluorescent lamps, 19F NMR). As to conditions: d4-methanol; for photodecomposition under ambient light (in words): after 7 days of light exposure; for diazirine remaining intact after ambient light exposure: one month, two linear fluorescent lamps (28 W each), room temperature. The format is physicochemical. The procedure: Photolabel (1, 2, or 3) (1 mg) was dissolved in d4-methanol (500 μL) in a 5 mm NMR tube. The ^19F NMR of this solution was recorded before any exposure to ambient light as the zero day reading. The NMR tube was then placed directly under two linear fluorescent lamps (28 W each) at room temperature and the ^19F NMR of this solution was recorded periodically (4, 7, 14, 18, 26 and 31 days). The analysis was repeated in duplicate.

Series [2] can be described thus: Thermal stability evaluation in the dark (19F NMR). The format is physicochemical. As to conditions: d4-methanol solution, room temperature (21° C.), one month. As for the experimental part: Photolabel (1, 2, or 3) (1 mg) was dissolved in d4-methanol (500 μL) in a 5 mm NMR tube. The ^19F NMR of this solution was recorded before any exposure to ambient light as the zero day reading. The NMR tube was then placed in the dark at room temperature and the ^19F NMR of this solution was recorded periodically (8, 14, and 31 days). The analysis was repeated in duplicate.

Series [3] concerns the target T1, concanavalin A (Con A) (Canavalia ensiformis, UniProt P02866). Nature of the series: Photolabeling of Con A, Coomassie gel and anti-biotin western blot. Format: binding. As to conditions: for photolabeling of Con A upon UV photoactivation (in words): UV light >320 nm, 10 minutes, anti-biotin peroxidase western blot; for labeling of Con A without UV photoactivation (in words): incubated with Con A, not exposed to UV light. The procedure:
To a solution of concanavalin A (Con A) (0.2 mg) in acetate buffer (10 mM, pH=5 with calcium chloride (1 mM), manganese (II) chloride (1 mM) and sodium chloride (200 mM)) (1 ml), the photoaffinity label (20, 21 or 22) solution (10 mM) in methanol (3 μL) was added at 0° C. This solution was bubbled with a gentle stream of nitrogen gas, using a clean needle, for 5 minutes and incubated in the dark at 0° C. for 30 minutes. […] The resultant sample can be stored at −80° C. and used for SDS gel, Western blot analysis or mass spectroscopic analysis.
Upon running the SDS gel, the PVDF membrane and gel was shaken in transfer buffer for 15 minutes. The holder cassette was placed opened in a shallow vessel such that the black panel was lying flat on the bottom of the vessel. Fiber pad presoaked with transfer buffer was then placed on the black panel of the holder cassette and a presoaked filter paper was placed over it. The equilibrated gel was carefully placed over the filter paper to avoid any air bubble getting trapped between the layers. Then the PVDF membrane was laid over the gel with care towards avoiding any air pocket between the layers. A presoaked filter paper was placed over the membrane followed by a filter pad. The resultant sandwich was firmly secured and the cassette was closed. The cassette holder was placed in the tank such that the black panel of the holder was on the black panel electrode. Insert the ice pack on the other side of the tank and place the tank on a magnetic stirrer. The tank was filled to the top row of circles in the cassette with transfer buffer. The magnetic stirrer was turned on and the lid was closed with black wire to black panel, red wire to red panel. The unit was connected to a power supply and ran at constant voltage of 70 V for 60 minutes. The membrane was carefully removed and the membrane was blocked with 5% (w/v) NFDM (non-fat dry milk) in tris saline Tween-20 buffer (TBS-T) for 1 hour at room temperature. The blocked membrane was then incubated overnight on a shaker at 4° C. with anti-biotin-peroxidase antibody in TBS-T buffer containing 1% NFDM. The membrane was washed five times (10 minutes each time on a shaker) with TBS-T buffer. The membrane was incubated for 5 minutes at room temperature with SuperSignal West Pico chemiluminescence substrate as per manufacturer's protocol. The resultant chemiluminescence of the bands was recorded on a photographic film and developed using a film processor.
In general terms: Immunoblotting shows a protein as a band on a membrane.

The target of series [4] is T1, concanavalin A (Con A). Nature of the series: Photolabeling of Con A in the presence of mannose (competitive binding). The conditions noted are these: competing mannose at 100 fold or 1000 fold, western blot. As for the experimental part:
For the competitive binding studies with mannose, to a solution of Con A (0.2 mg) in acetate buffer (10 mM, pH=5 with calcium chloride (1 mM), manganese (II) chloride (1 mM) and sodium chloride (200 mM)) (1 ml) a aqueous solution of mannose (30 μL of 100 mM solution for 100 fold [or] 30 μL of 1 M solution for 1000 fold) was added and mixed. To this the photoaffinity label (20, 21 or 22) solution (10 mM) in methanol (3 μL) was added at 0° C. This solution was bubbled with a gentle stream of nitrogen gas, using a clean needle, for 5 minutes and incubated in the dark at 0° C. for 30 minutes. The sample was then transferred to a disposable cuvette and photoactivated for 10 minutes using a 150 W XBO xenon short-arc UV lamp fitted with a filter that cuts off light with wavelengths less than 320 nm. The resultant sample can be stored at −80° C. and used for SDS gel and Western blot analysis.
Upon running the SDS gel, the PVDF membrane and gel was shaken in transfer buffer for 15 minutes. The holder cassette was placed opened in a shallow vessel such that the black panel was lying flat on the bottom of the vessel. Fiber pad presoaked with transfer buffer was then placed on the black panel of the holder cassette and a presoaked filter paper was placed over it. […] The resultant chemiluminescence of the bands was recorded on a photographic film and developed using a film processor.

Series [5] can be described thus: Near UV-visible absorption spectra. The format is physicochemical. As to conditions: near-UV/Vis, 2.5 mM solution in methanol; relative to the conventional photolabel.

Consider `OCc1ccc(C2(C(F)(F)F)N=N2)cc1` [compound 3, (4-(3-(trifluoromethyl)-3H-diazirin-3-yl)phenyl)methanol, reference compound], for which, in series [1], the “photodecomposition under ambient light (in words)” value (“photodecomposition” for short) is reported as “significant photodecomposition” and the “diazirine remaining intact after ambient light exposure” value (“diazirine remaining intact” for short) was determined as 27%. The “decomposition / stability in the dark (in words)” value (“decomposition / stability” for short) in series [2] is “stable”.

In the case of `O=C(CCCCC1SCC2NC(=O)NC21)NCCCCCCN(Cc1ncc(C2(C(F)(F)F)N=N2)cn1)C(=O)CO[C@H]1O[C@H](CO)[C@@H](O)[C@H](O)[C@@H]1O` (stereo partly drawn) [compound 22, 5-(2-oxohexahydro-1H-thieno[3,4-d]imidazol-4-yl)-N-(6-(N-((5-(3-(trifluoromethyl)-3H-diazirin-3-yl)pyrimidin-2-yl)methyl)-2-(((2S,3S,4S,5S,6R)-3,4,5-trihydroxy-6-(hydroxymethyl)tetrahydro-2H-pyran-2-yl)oxy)acetamido)hexyl)pentanamide], at concanavalin A (Con A) [3], the “photolabeling of Con A upon UV photoactivation (in words)” value is reported as “successfully labeled the protein target upon photoactivation; also recorded: as effectively as the conventional phenyl derived photolabel 20”; the “labeling of Con A without UV photoactivation (in words)” value is “detected only with coomassie stain and not in the western blot analysis”. The “photolabeling / crosslinking of Con A in the presence of mannose (in words)” value on concanavalin A (Con A) [4] is “correlates indirectly to the concentration of competing mannose ligand”.

For `OCc1ccc(C2(C(F)(F)F)N=N2)cn1` [compound 1, (5-(3-(trifluoromethyl)-3H-diazirin-3-yl)pyridin-2-yl)methanol], the “decrease of absorption coefficient ϵ” value in series [5] was “approximately 15%”. Moreover, in series [1], the “photodecomposition” value is “negligibly photodecomposed” and the “diazirine remaining intact” value was determined as 79%. Also, the “photolabeling of Con A upon UV photoactivation (in words)” value at concanavalin A (Con A) [3] is listed as “as efficiently as the conventional diazirine photolabel 3”. Also, in series [2], the “decomposition / stability” value was “stable”.

Take `OCc1ncc(C2(C(F)(F)F)N=N2)cn1` [compound 2, (5-(3-(trifluoromethyl)-3H-diazirin-3-yl)pyrimidin-2-yl) methanol]: the “decrease of absorption coefficient ϵ” value in series [5] is ~30%. For the same compound, in series [1], the “photodecomposition” value was “virtually unaffected” and the “diazirine remaining intact” value amounted to 90%. Further, on concanavalin A (Con A) [3], the “photolabeling of Con A upon UV photoactivation (in words)” value is recorded as “as efficiently as the conventional diazirine photolabel 3”. Besides, in series [2], the “decomposition / stability” value is on record as “stable”.

In the case of `O=C(CCCCC1SCC2NC(=O)NC21)NCCCCCCN(Cc1ccc(C2(C(F)(F)F)N=N2)cn1)C(=O)CO[C@H]1O[C@H](CO)[C@@H](O)[C@H](O)[C@@H]1O` (stereo partly drawn) [compound 21, 5-(2-oxohexahydro-1H-thieno[3,4-d]imidazol-4-yl)-N-(6-(N-((5-(3-(trifluoromethyl)-3H-diazirin-3-yl)pyridin-2-yl)methyl)-2-(((2S,3S,4S,5S,6R)-3,4,5-trihydroxy-6-(hydroxymethyl)tetrahydro-2H-pyran-2-yl)oxy)acetamido)hexyl)pentanamide], on concanavalin A (Con A) [3], the “photolabeling of Con A upon UV photoactivation (in words)” value was “successfully labeled the protein target upon photoactivation; also recorded: as effectively as the conventional phenyl derived photolabel 20”; the “labeling of Con A without UV photoactivation (in words)” value is “detected only with coomassie stain and not in the western blot analysis”. Also, the “photolabeling / crosslinking of Con A in the presence of mannose (in words)” value at concanavalin A (Con A) [4] is recorded as “correlates indirectly to the concentration of competing mannose ligand”.

Consider `O=C(CCCCC1SCC2NC(=O)NC21)NCCCCCCN(Cc1ccc(C2(C(F)(F)F)N=N2)cc1)C(=O)CO[C@H]1O[C@H](CO)[C@@H](O)[C@H](O)[C@@H]1O` (stereo partly drawn) [compound 20, 5-(2-oxohexahydro-1H-thieno[3,4-d]imidazol-4-yl)-N-(6-(N-(4-(3-(trifluoromethyl)-3H-diazirin-3-yl)benzyl)-2-(((2S,3S,4S,5S,6R)-3,4,5-trihydroxy-6-(hydroxymethyl)tetrahydro-2H-pyran-2-yl)oxy)acetamido)hexyl)pentanamide], for which, on concanavalin A (Con A) [3], the “photolabeling of Con A upon UV photoactivation (in words)” value is “successfully labeled the protein target upon photoactivation”; the “labeling of Con A without UV photoactivation (in words)” value is “detected only with coomassie stain and not in the western blot analysis”.
